IC50 data for 28 compounds are collected here from the Kinase Knowledgebase extract (Sharma et al. 2016).

For assay [1], the target named is EGFR (Human), P00533 [Assessment of HCC827 (EGFR Del) Cell Proliferation].
Assay [2] concerns the target EGFR (Human), P00533 [T790M/L858R]. Conditions: h1975.
Assay [3] concerns the target EGFR (human), P00533 [WT]. The conditions noted are these: a431.
Assay [4] concerns the target EGFR (human), P00533 [WT]. The conditions noted are these: a549.
In assay [5] the target is EGFR (human), P00533 [T790M].
The target of assay [6] is EGFR (human), P00533 [L858R].
EGFR (human), P00533 [L858R], sequence (P00533 whole entry L858R, looked up): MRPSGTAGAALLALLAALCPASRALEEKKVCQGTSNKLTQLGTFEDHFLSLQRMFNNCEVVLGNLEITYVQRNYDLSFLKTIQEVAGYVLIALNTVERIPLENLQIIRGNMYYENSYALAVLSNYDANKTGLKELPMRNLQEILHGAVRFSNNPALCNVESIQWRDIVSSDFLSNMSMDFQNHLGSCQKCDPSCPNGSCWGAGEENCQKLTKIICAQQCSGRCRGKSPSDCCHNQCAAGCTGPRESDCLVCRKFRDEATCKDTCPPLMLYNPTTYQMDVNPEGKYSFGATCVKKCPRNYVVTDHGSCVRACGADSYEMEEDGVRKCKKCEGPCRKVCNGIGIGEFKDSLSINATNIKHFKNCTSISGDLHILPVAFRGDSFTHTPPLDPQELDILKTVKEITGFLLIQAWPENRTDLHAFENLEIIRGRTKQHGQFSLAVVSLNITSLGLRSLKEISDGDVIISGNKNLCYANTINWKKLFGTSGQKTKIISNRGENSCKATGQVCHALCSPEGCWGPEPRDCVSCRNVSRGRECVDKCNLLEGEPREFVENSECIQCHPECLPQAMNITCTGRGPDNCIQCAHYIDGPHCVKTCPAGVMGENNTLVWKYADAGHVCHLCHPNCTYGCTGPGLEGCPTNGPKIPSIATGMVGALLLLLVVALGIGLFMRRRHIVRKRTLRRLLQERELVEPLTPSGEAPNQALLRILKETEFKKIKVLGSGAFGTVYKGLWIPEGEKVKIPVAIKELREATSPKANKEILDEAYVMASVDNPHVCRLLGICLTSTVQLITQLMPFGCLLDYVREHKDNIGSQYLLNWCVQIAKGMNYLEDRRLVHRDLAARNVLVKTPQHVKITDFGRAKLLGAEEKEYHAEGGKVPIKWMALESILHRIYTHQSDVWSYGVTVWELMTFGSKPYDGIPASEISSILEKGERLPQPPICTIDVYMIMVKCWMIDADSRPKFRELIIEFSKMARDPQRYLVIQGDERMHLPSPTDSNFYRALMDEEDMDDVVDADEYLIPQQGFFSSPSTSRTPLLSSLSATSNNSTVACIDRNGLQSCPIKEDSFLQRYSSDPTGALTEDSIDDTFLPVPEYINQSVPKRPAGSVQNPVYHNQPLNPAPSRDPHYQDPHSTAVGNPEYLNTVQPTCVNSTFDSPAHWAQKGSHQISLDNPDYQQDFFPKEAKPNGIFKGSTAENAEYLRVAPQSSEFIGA
For assay [7], the target named is EGFR (Human), P00533 [T790M/L858R].
EGFR (Human), P00533 [T790M/L858R], sequence (P00533 whole entry T790M/L858R, looked up): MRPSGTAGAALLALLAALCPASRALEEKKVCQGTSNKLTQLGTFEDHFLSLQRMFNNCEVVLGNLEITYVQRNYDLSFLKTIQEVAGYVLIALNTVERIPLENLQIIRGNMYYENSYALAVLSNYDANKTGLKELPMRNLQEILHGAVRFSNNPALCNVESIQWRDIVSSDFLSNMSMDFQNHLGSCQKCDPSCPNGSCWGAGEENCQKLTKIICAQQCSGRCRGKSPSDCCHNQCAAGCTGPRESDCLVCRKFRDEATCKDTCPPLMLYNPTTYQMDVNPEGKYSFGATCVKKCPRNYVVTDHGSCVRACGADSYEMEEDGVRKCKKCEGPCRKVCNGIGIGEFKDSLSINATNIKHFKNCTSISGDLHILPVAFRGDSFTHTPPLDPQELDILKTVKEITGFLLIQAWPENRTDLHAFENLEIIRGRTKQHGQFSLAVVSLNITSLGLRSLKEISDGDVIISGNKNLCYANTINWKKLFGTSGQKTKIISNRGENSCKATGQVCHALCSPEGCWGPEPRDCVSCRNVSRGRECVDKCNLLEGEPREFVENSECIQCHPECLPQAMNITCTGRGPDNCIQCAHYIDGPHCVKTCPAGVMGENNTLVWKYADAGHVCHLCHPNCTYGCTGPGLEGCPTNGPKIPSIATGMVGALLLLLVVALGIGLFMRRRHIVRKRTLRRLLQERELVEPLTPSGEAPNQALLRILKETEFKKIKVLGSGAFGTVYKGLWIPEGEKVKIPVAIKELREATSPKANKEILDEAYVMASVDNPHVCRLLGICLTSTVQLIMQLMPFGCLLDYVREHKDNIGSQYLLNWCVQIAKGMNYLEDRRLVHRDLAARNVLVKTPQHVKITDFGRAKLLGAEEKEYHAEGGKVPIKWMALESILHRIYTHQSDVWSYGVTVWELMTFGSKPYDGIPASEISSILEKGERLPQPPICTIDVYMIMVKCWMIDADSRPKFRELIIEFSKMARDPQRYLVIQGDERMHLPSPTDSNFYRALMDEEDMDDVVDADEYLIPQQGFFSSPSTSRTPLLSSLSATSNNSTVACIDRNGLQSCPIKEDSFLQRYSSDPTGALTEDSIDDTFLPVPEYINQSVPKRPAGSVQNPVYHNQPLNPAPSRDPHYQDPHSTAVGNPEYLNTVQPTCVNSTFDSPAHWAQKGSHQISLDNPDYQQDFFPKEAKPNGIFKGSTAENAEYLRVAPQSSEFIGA

EGFR (Human), P00533 [Assessment of HCC827 (EGFR Del) Cell Proliferation], sequence (P00533 whole entry, looked up, stated change not applied): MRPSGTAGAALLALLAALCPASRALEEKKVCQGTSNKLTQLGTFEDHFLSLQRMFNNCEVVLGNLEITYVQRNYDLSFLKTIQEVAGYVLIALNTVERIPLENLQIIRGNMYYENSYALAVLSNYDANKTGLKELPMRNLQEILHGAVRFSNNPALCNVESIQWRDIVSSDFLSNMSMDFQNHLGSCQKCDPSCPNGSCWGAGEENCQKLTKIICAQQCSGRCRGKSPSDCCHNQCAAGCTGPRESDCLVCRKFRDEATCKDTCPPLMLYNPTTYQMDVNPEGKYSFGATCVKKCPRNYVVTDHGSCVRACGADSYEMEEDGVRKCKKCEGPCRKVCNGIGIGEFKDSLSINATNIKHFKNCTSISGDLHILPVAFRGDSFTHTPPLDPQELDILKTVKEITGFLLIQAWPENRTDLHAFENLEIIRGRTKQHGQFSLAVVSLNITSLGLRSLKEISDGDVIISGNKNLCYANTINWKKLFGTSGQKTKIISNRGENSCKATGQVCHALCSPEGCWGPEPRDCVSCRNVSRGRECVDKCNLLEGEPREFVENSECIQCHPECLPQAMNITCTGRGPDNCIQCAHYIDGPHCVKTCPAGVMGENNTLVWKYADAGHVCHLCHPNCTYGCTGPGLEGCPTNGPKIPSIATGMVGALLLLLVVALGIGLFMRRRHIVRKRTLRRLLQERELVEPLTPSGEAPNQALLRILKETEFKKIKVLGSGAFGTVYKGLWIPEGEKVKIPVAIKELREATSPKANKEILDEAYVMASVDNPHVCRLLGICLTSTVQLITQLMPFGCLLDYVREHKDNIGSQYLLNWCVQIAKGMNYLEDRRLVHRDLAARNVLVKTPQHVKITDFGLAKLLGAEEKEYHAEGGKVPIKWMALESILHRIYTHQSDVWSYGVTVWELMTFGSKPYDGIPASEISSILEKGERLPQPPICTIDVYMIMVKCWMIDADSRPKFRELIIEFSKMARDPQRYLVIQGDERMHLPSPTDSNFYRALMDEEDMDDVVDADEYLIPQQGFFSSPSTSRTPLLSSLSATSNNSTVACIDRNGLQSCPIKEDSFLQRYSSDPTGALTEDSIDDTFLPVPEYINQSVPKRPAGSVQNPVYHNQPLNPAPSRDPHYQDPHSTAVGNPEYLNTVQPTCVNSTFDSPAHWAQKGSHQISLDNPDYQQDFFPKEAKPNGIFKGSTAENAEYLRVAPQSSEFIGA
EGFR (human), P00533 [WT], sequence (P00533 whole entry, looked up): as the sequence (P00533 whole entry, looked up, stated change not applied) above

As usually defined, the IC50 is the concentration that inhibits the measured activity by half. Low readings indicate higher potency, high ones lower potency. `COc1cc(N2CCC(N(C)C)CC2)ccc1Nc1ncc(Cl)c(Nc2ccccc2C(=O)C(=O)NO)n1`: the IC50 in assay [1] worked out at 940 nM; in assay [2] it was 840 nM.
In the case of `COc1cc(N2CCC(N(C)C)CC2)ccc1Nc1ncc(Cl)c(Nc2ccccc2C(=O)C(=O)N(C)C)n1`, the IC50 in assay [1] stood at 1230 nM; in assay [2], 860 nM; in assay [3], 260 nM.
Compound `C=CC(=O)N1CCC(NC(=O)C(=O)c2ccccc2Nc2nc(Nc3ccc(F)c(OC)c3)ncc2Cl)CC1` returned an IC50 in assay [2] of 190 nM.
As for `C=CC(=O)Nc1cc(Nc2ncc(Cl)c(Nc3ccccc3C(=O)C(=O)N(C)C)n2)c(F)cc1OC`, the values for the IC50 in assay [1] and in assay [2] were 1200 nM and 310 nM, respectively.
The corresponding values for `C=CC(=O)Nc1cc(Nc2ncc(Cl)c(Nc3ccccc3C(=O)C(=O)N(C)C)n2)c(OC)cc1F` are 120 nM and 50 nM.
The matching figures for `C=CC(=O)Nc1cc(Nc2ncc(Cl)c(Nc3ccccc3C(=O)C(=O)N(C)C)n2)ccc1OC`: 120 nM and 20 nM.
For the compound `COc1cc(N2CCN(C(C)=O)CC2)ccc1Nc1ncc(Cl)c(Nc2ccccc2C(=O)C(=O)N(C)C)n1`, the IC50 in assay [1] came out at 540 nM; in assay [2], 210 nM; in assay [3], 50 nM.
On to `COc1cc(N2CCC(N(C)C)CC2)ccc1Nc1ncc(Cl)c(Nc2ccccc2C(=O)C(=O)N2CCOCC2)n1`, for which the IC50 in assay [2] was 2860 nM.
The same measure, in the same setting: with `CNC(=O)C(=O)c1ccccc1Nc1nc(Nc2ccc(F)c(OC)c2)ncc1Cl` the figure was 640 nM.
Consider `C=CC(=O)Nc1cccc(Nc2ncc(Cl)c(Nc3ccccc3C(=O)C(=O)NC)n2)c1`, for which the results for the IC50 in assay [1] and in assay [2] were 270 nM and 100 nM, respectively.
In the case of `C=C(CN1CCOCC1)C(=O)Nc1cccc(Nc2ncc(Cl)c(Nc3ccccc3C(=O)C(=O)N(C)C)n2)c1`, the IC50 in assay [1] was 30 nM; in assay [2] it was 10 nM; in assay [3], 100 nM; in assay [4], 40 nM.
For the compound `COc1cc(N2CCN(C)CC2)ccc1Nc1ncc(Cl)c(Nc2ccccc2C(=O)C(=O)N2CCOCC2)n1`, the figures for the IC50 in assay [1] and in assay [2] were 2360 nM and 1230 nM, respectively.
Regarding `C=CC(=O)Nc1ccc(OC)c(Nc2ncc(Cl)c(Nc3ccccc3C(=O)C(=O)N(CC)CC)n2)c1`, the IC50 in assay [1] is 50 nM; in assay [2], 10 nM; in assay [3], 750 nM.
Turning to `C=CC(=O)Nc1cc(Nc2ncc(Cl)c(Nc3ccccc3C(=O)C(=O)N(C)C)n2)c(OC)cc1N1CCN(C)CC1`, the IC50 was 30 nM in assay [1], 50 nM in assay [2], 50 nM in assay [3] and 620 nM in assay [4].
For `CNC(=O)C(=O)c1ccccc1Nc1nc(Nc2ccc(N3CCN(C)CC3)c(OC)c2)ncc1Cl`, the 50% inhibitory concentration (IC50) in assay [1] was 870 nM; in assay [2], 150 nM; in assay [4], 2080 nM.
As for `C/C=C/C(=O)Nc1ccc(OC)c(Nc2ncc(Cl)c(Nc3ccccc3C(=O)C(=O)N(C)C)n2)c1`, the IC50 in assay [1] was 1050 nM; in assay [2], 310 nM; in assay [4], 1370 nM.
Turning to `COc1cc(Nc2ncc(Cl)c(Nc3ccccc3C(=O)C(=O)N(C)C)n2)ccc1F`, in assay [1], the IC50 is 2330 nM.
Regarding `COc1cc(N2CCN(C)CC2)ccc1Nc1ncc(Cl)c(Nc2ccccc2C(=O)C(=O)N(C)C)n1`, the figures for the IC50 in assay [1] and in assay [2] were 1630 nM and 810 nM, respectively.
`C=C(CN(C)CCN(C)C)C(=O)Nc1ccc(OC)c(Nc2ncc(Cl)c(Nc3ccccc3C(=O)C(=O)N(C)C)n2)c1`: the IC50 was 20 nM in assay [1], 10 nM in assay [2] and 210 nM in assay [3].
Regarding `C=CC(=O)Nc1cccc(Nc2ncc(C(F)(F)F)c(Nc3ccccc3C(=O)C(N)=O)n2)c1`, the IC50 in assay [1] is 530 nM; in assay [2], 980 nM; in assay [4] it was 370 nM.
With `COc1cc(Nc2ncc(Cl)c(Nc3ccccc3C(=O)C(=O)N(C)C)n2)ccc1N1CCC(N(C)C)CC1`, the IC50 in assay [1] is 20 nM; in assay [2], 10 nM; in assay [3], 10 nM; in assay [4], 1890 nM.
For `COc1cc(N2CCC(N(C)C)CC2)ccc1Nc1ncc(Cl)c(Nc2ccccc2C(=O)C(N)=O)n1`, the IC50 amounted to 7.52 nM in assay [5], 2630 nM in assay [1], 44.3 nM in assay [6] and 4.08 nM in assay [7].
Turning to `COc1cc(N2CCOCC2)ccc1Nc1ncc(Cl)c(Nc2ccccc2C(=O)C(=O)N(C)C)n1`, the IC50 in assay [1] was determined as 1940 nM; in assay [2], 1950 nM.
Turning to `C=CC(=O)Nc1cccc(Nc2ncc(Cl)c(Nc3ccccc3C(=O)C(=O)N(C)C)n2)c1`, the IC50 is 70 nM in assay [1], 10 nM in assay [2] and 640 nM in assay [4].
In the case of `C=CC(=O)Nc1cc(Nc2ncc(Cl)c(Nc3ccccc3C(=O)C(=O)NC)n2)ccc1OC`, the values for the IC50 in assay [1] and in assay [2] were 450 nM and 90 nM, respectively.
In the case of `C=CC(=O)Nc1ccc(OC)c(Nc2ncc(Cl)c(Nc3ccccc3C(=O)C(=O)N(C)C)n2)c1`, the IC50 in assay [1] amounted to 20 nM; in assay [2] it was 20 nM; in assay [3] it was 110 nM; in assay [4] it was 1580 nM.
`C=CC(=O)Nc1cc(Nc2ncc(Cl)c(Nc3ccccc3C(=O)C(=O)NC)n2)c(F)cc1OC`: the IC50 in assay [1] came to 1200 nM; in assay [2] it was 650 nM.
The matching figures for `CNC(=O)C(=O)c1ccccc1Nc1nc(Nc2ccc(N3CCC(N(C)C)CC3)cc2OC)ncc1Cl`: 900 nM and 1130 nM.
